Measured values: article PMC8765437, “GSK3640254 Is a Novel HIV-1 Maturation Inhibitor with an Optimized Virology Profile” (Antimicrobial Agents and Chemotherapy, 2022)
Where two headings read alike, the source gives them in different places.

Test system: NLRepRlucP373S viruses containing Gag SDMs or gag/pr genes from clinical isolates
Assay: Multiple-cycle replication assay, NLRepRluc reporter viruses in MT-2 cells, luciferase endpoint
Assay type: cell-based, HIV-1
Excerpt: Multiple-cycle assays using recombinant viruses or clinical isolates were used to assess MI antiviral activity as described previously ([10]). pNLRepRlucP373S (the P373S change is in the Gag gene and converts an outlier polymorphism in the NL4-3 gene to the prevalent amino acid in the population) plasmids containing SDMs in Gag or gag/pr regions from clinical isolates were transfected into HEK 293T cells, and the supernatant containing recombinant virus was harvested after 4 to 5 days. Virus was used to infect MT-2 cells in the presence of a 3-fold serially diluted compound at a final dimethyl sulfoxide (DMSO) concentration of 1%. The inocula of the reporter viruses were determined based on the luciferase activity detected on day 4 postinfection. The MOI (ratio of infectious virions to target cells) of reporter-free laboratory strains and clinical isolates was 0.005, as derived from a tissue culture infectious dose study. Clinical isolates or reporter-free viruses were examined in the reporter CEM-NKR-CCR5-Luc cells or PBMCs at MOIs ranging from 0.005 to 0.01. Each infection started with a drug-free preincubation of the cell-virus mixtures, performed at 37°C and 5% CO2 for either 1 h at 2 times the final cell density (reporter viruses) or 1 h (reporter-free laboratory strains) or 3 h (clinical isolates) using cell pellets in 0.5 mL of medium. After preincubation, cell-virus mixtures were added to compound-containing 96-well plates for a final cell density of either 10,000 (MT-2 cells for reporter viruses), 20,000 (MT-2 and PM1 cells for reporter-free laboratory strains), 200,000 (PBMCs for clinical isolates), or 500,000 (CEM-NKR-CCR5-Luc for reporter-free laboratory strains) cells per well. The CEM-NKR-CCR5-Luc cell assay was performed in the presence of Polybrene (10 μg/mL). Virus growth was determined on days 4 to 5 postinfection for reporter variants or days 5 to 11 for the other viruses. The reporter viruses were detected by a luciferase assay according to manufacturer protocols (Brite-Glo luciferase kit [Promega] for CEM-NKR-CCR5-Luc cells and Dual-Luciferase Reporter 1000 assay system [Promega] for the other cells), and luminescence was detected on a Wallac Trilux. The growth of clinical isolates in PBMCs was quantitated by reverse transcriptase activity in a 96-well scintillation proximity assay (SPA). Twenty microliters of culture supernatants was mixed with 40 μL of reaction cocktail (62.5 mM Tris-HCl [pH 7.8], 100 mM KCl, 0.0625% NP-40, 2.5 mM dithiothreitol [DTT], 6.25 mM MgCl2, 1 mM EGTA, 6.25 μg/mL of poly rA, 2.5 μg/mL of streptavidin SPA beads prebound with biotinylated-dT12-18, and 1 μCi of [^3H]TTP). Mixtures were incubated at 37°C for ∼3 h and quenched with 100 μl of 0.25 M EDTA per well. Luminescence was detected on a Wallac Trilux programmed for tritium counting with SPA beads in opaque plates. The growth of the reporter-free laboratory M-tropic strains and clinical isolates was monitored by a p24 enzyme-linked immunosorbent assay (ELISA; PerkinElmer Life Sciences, Waltham, MA) performed on culture supernatants. […] A 1:1,000 dilution of cell supernatant in PBS was generally observed to fall in the dynamic range of the endpoint signal.
Maximal percent inhibition values were calculated as MPI = 100 – (mean signals at the 2 highest concentrations of compound/mean signal of 2 no-drug control wells) × 100.

[1] = Human immunodeficiency virus 1, MT2, V370A, 10% FBS
[2] = Human immunodeficiency virus 1, MT2, Wild type, 10% FBS

SMILES: C=C(C)[C@@H]1CC[C@]2(NCCN3CCS(=O)(=O)CC3)CC[C@]3(C)[C@H](CC[C@@H]4[C@@]5(C)CC=C(C6=CC[C@@](CF)(C(=O)O)CC6)C(C)(C)[C@@H]5CC[C@]43C)[C@@H]12 [GSK’254]
- MPI (A366V-containing viruses): −86 to 400%
- EC50 (Human immunodeficiency virus 1, MT2, 92BR018-genotyped NLRepRlucP373S virus): 1 nM
- EC50 (Human immunodeficiency virus 1, MT2, 93BR008-genotyped NLRepRlucP373S virus): 2 nM
- EC50 (Human immunodeficiency virus 1, MT2, R361K/V362I/L363M): 3 nM
- EC50 (Human immunodeficiency virus 1, MT2, Table S1, SDM R361K/V362I/L363M): 3 nM
- EC50 (Human immunodeficiency virus 1, MT2, Table S1, SDM S368R/V370A): 1 nM
- EC50 (Human immunodeficiency virus 1, MT2, Table S1, SDM V362I/V370A): 3 nM
- EC50 (Human immunodeficiency virus 1, MT2, Table S1, SDM V370A): 2 nM
- EC50 (Human immunodeficiency virus 1, MT2, Table S1, SDM V370A/ΔT371): 3 nM
- EC50 (Human immunodeficiency virus 1, MT2, Table S1, SDM ΔV370): 3 nM
- EC50 (Human immunodeficiency virus 1, MT2, Table S1, subtype B SDM Wild-type (V, QVT)): 3 nM
- EC50 (Human immunodeficiency virus 1, MT2, V362I/V370A): 3 nM
- EC50 [1]: 1.5 nM
- EC90 [1]: 3 nM
- EC50 [2]: 1.4 nM
- EC90 [2]: 3.6 nM
- EC50 (Human immunodeficiency virus 1, MT2, read-out: EC50 (range), Subtype B gag/pr viruses, n=24): 0.5 to 7 nM
- EC50 (Human immunodeficiency virus 1, MT2, read-out: EC50 (range), Subtype C gag/pr viruses, n=11): 1 to 2 nM
- EC50 (Human immunodeficiency virus 1, MT2, read-out: EC50 (range), V362I only viruses, n=9): 1 to 7 nM
- EC50 (Human immunodeficiency virus 1, MT2, read-out: EC50 (range), Wild-type subtype B, n=5): 0.5 to 2 nM
- EC50 (Human immunodeficiency virus 1, MT2, read-out: Mean ± SD EC50, A366V-containing viruses (A366V, V362I/A366V, V362I/A366V/V370M, A366V/V370M)): > 3000 nM
- EC50 (Human immunodeficiency virus 1, MT2, read-out: Mean ± SD EC50, SDM A326T/V362I/V370A): 26 ± 70 nM
- EC50 (Human immunodeficiency virus 1, MT2, read-out: Mean ± SD EC50, SDM A364V): 274 ± 505 nM
- EC50 (Human immunodeficiency virus 1, MT2, read-out: Mean ± SD EC50, SDM R361K/V362I/L363M): 3 ± 1 nM
- EC50 (Human immunodeficiency virus 1, MT2, read-out: Mean ± SD EC50, SDM T332S/V362I/prR41G): 7 ± 4 nM
- EC50 (Human immunodeficiency virus 1, MT2, read-out: Mean ± SD EC50, SDM V362I/V370A): 3 ± 1 nM
- EC50 (Human immunodeficiency virus 1, MT2, read-out: Mean ± SD EC50, SDM V370A): 2 ± 1 nM
- EC50 (Human immunodeficiency virus 1, MT2, read-out: Mean ± SD EC50, SDM Wild type): 3 ± 2 nM
- EC50 (Human immunodeficiency virus 1, MT2, read-out: Mean ± SD EC50, SDM ΔV370): 3 ± 1 nM
- EC50 (Human immunodeficiency virus 1, MT2, read-out: Mean ± SD EC50, Subtype B gag/pr viruses, n=24): 1.9 ± 1.5 nM
- EC50 (Human immunodeficiency virus 1, MT2, read-out: Mean ± SD EC50, Subtype C gag/pr viruses, n=11): 1.2 ± 0.4 nM
- EC50 (Human immunodeficiency virus 1, MT2, read-out: Mean ± SD EC50, V362I only viruses, n=9): 2.7 ± 2 nM
- EC50 (Human immunodeficiency virus 1, MT2, read-out: Mean ± SD EC50, V362I/ΔV370 virus, n=1): 3 nM
- EC50 (Human immunodeficiency virus 1, MT2, read-out: Mean ± SD EC50, Wild-type subtype B (V362, Q369, V370, T371), n=5): 1.1 ± 0.5 nM
- EC50 (Human immunodeficiency virus 1, MT2, read-out: Median EC50, Subtype B gag/pr viruses, n=24): 1 nM
- EC50 (Human immunodeficiency virus 1, MT2, read-out: Median EC50, Subtype C gag/pr viruses, n=11): 1 nM
- EC50 (Human immunodeficiency virus 1, MT2, read-out: Median EC50, V362I only viruses, n=9): 2 nM
- EC50 (Human immunodeficiency virus 1, MT2, read-out: Median EC50, Wild-type subtype B, n=5): 1 nM
- EC90 (Human immunodeficiency virus 1, MT2, read-out: PBA EC90, Table S1, SDM A326T/V362I/V370A): 117 nM
- EC90 (Human immunodeficiency virus 1, MT2, read-out: PBA EC90, Table S1, SDM R361K/V362I/L363M): 50 nM
- EC90 (Human immunodeficiency virus 1, MT2, read-out: PBA EC90, Table S1, SDM S368R/V370A): 9 nM
- EC90 (Human immunodeficiency virus 1, MT2, read-out: PBA EC90, Table S1, SDM T332S/V362I/PrR41G): 77 nM
- EC90 (Human immunodeficiency virus 1, MT2, read-out: PBA EC90, Table S1, SDM V362I/V370A): 18 nM
- EC90 (Human immunodeficiency virus 1, MT2, read-out: PBA EC90, Table S1, SDM V370A): 21 nM
- EC90 (Human immunodeficiency virus 1, MT2, read-out: PBA EC90, Table S1, SDM V370A/ΔT371): 40 nM
- EC90 (Human immunodeficiency virus 1, MT2, read-out: PBA EC90, Table S1, SDM ΔV370): 57 nM
- EC90 (Human immunodeficiency virus 1, MT2, read-out: PBA EC90, Table S1, subtype B SDM Wild-type (V, QVT)): 24 nM
- EC90 (Human immunodeficiency virus 1, MT2, read-out: PBA EC90, subtype B gag/pr 4NRR (Wild-type)): 25 nM
- EC90 (Human immunodeficiency virus 1, MT2, read-out: PBA EC90, subtype B gag/pr 28-MDR (Wild-type)): 37 nM
- EC90 (Human immunodeficiency virus 1, MT2, read-out: PBA EC90, subtype B gag/pr 92BR014 (V370M)): 11 nM
- EC90 (Human immunodeficiency virus 1, MT2, read-out: PBA EC90, subtype B gag/pr 92BR018 (V, QAΔ)): 26 nM
- EC90 (Human immunodeficiency virus 1, MT2, read-out: PBA EC90, subtype B gag/pr 92TH014 (V362I)): 12 nM
- EC90 (Human immunodeficiency virus 1, MT2, read-out: PBA EC90, subtype B gag/pr 92TH026 (V362I)): 32 nM
- EC90 (Human immunodeficiency virus 1, MT2, read-out: PBA EC90, subtype B gag/pr 92US072 (V362I)): 21 nM
- EC90 (Human immunodeficiency virus 1, MT2, read-out: PBA EC90, subtype B gag/pr 92US729 (Wild-type)): 13 nM
- EC90 (Human immunodeficiency virus 1, MT2, read-out: PBA EC90, subtype B gag/pr 93BR008 (V362I)): 30 nM
- EC90 (Human immunodeficiency virus 1, MT2, read-out: PBA EC90, subtype B gag/pr 93BR017 (V, QAΔ)): 20 nM
- EC90 (Human immunodeficiency virus 1, MT2, read-out: PBA EC90, subtype B gag/pr 93BR022 (V, QAΔ)): 28 nM
- EC90 (Human immunodeficiency virus 1, MT2, read-out: PBA EC90, subtype B gag/pr 93BR024 (V362I)): 180 nM
- EC90 (Human immunodeficiency virus 1, MT2, read-out: PBA EC90, subtype B gag/pr 93TH0647 (V362I)): 23 nM
- EC90 (Human immunodeficiency virus 1, MT2, read-out: PBA EC90, subtype B gag/pr 93US141 (V362I)): 37 nM
